Experimental data reported in patent publication US10098842B2, “Method and a device for producing nanoparticles” (Nanoform Finland Oy, priority 2014, dated 2018).

Experiment: Drug release (dissolution) tests in phosphate buffer pH 7.2
Format: physicochemical
Settings: gelatin capsule, phosphate buffer pH 7.2, 37.0° C., 400 rpm
Protocol: Drug release tests for piroxicam nanoparticles and bulk (reference) piroxicam were done to investigate the effect of particle size on the dissolution rate. The tests were conducted in glass vials under heating (37.0±0.5° C.) and stirring (400 rpm) (H+P Labortechnik AG, Multitherm, Germany). Samples were placed in a gelatin capsule and anchored with an iron wire to prevent the capsule from surfacing. The capsule was then placed in glass vials containing phosphate buffer (50 mL; pH 7.2). Aliquots (1 mL) were taken at the time points ranging from 1 min to 48 hours. Drug release tests were conducted in triplicate. Samples were analyzed with high performance liquid chromatography (HPLC Thermo System Products, Agilent 1200 Infinity Series, Agilent Technologies, Germany) using a Discovery® C18 (Supelco Analytical, U.S.) column with guard column and a flow rate of 1 mL/min. The mobile phase was 60:40 (v/v) acetonitrile and 0.05% trifluoroacetic acid. The UV detection of piroxicam was set to 333 nm with a retention time of 2.9 min and total run time of 4 min at 30° C. A standard curve for […] quantification was made from piroxicam concentrations of 0.1-25 μg/mL (R^2=0.999).

CN1C(C(=O)Nc2ccccn2)=C(O)c2ccccc2S1(=O)=O [bulk piroxicam, 4-hydroxy-2-methyl-N-(2-pyridinyl)-2H-1,2-benzothiazine-3-carboxamide 1,1-dioxide]
dissolution rate compared with the literature (Lai et al. 2011): agreed and exceeded that reported in the literature
